In US8202909B2, “Method for treating central nervous system disorders” (Sucampo AG, priority 2005, dated 2012):
Marks after values point to notes of the source that are not given here.

Experiments:
ddY mice [1] = assay: Persistent time of gasping movements after decapitation in mice, subcutaneous (Example 1); assay type: in vivo; settings: for Persistent Time of Gasping Movements: decapitated 30 minutes after administration, Mean ± SE, n=10
Experimental: (§1) Four-week-old male ddY mice were housed in aluminum cages in an animal room controlled for temperature (24±3° C.), relative humidity (55±10%), ventilation rate (˜12 times/hour) and light-dark cycle (fluorescent lighting: 8:00 to 20:00) for at least 7 days. The animals were allowed free access to pellet diet and tap water from water bottles. Healthy animals without abnormalities in general signs were used in this study.
11-deoxy-13,14-dihydro-15-keto-16,16-difluoro-PGE1 (hereinafter, “Compound A”) was dissolved in a vehicle (physiologic saline containing 0.01% polysorbate 80 and 0.5% ethanol), and was administered subcutaneously to the animals. The control group received an equal amount of the vehicle in the same manner.
(§2) The animals were decapitated at 30 minutes after the administration, and the persistent time of gasping movements was measured.

ddY mice [2] = assay: Persistent time of gasping movements after decapitation in mice, oral administration (Example 2); assay type: in vivo; settings: for Persistent Time of Gasping Movements: fasted mice, decapitated 30 minutes after administration, Mean ± SE, n=10; for Effect on persistent time of gasping movement after decapitation (in words): oral administration at 100, 300 and 1000 μg/kg
Experimental: as §1, with “study. The animals were fasted for 20 hours or longer with free access to water before use.” for “study.”
Compound A and 11-deoxy-13,14-dihydro-15-keto-16,16-difluoro-PGE1 methyl ester (hereinafter, “Compound B”) were dissolved in a vehicle (physiologic saline containing 0.01% polysorbate 80 and 0.5% ethanol), and was administered orally to the animals. The control group received an equal amount of the vehicle in the same manner.
as §2

Crj: CD (SD) male rats = assay: Cerebral infarct volume after transient focal cerebral ischemia (MCA occlusion-reperfusion) in rats; assay type: in vivo; settings: for Infarct volume: brain removed 24 hours after MCA occlusion, mean±S.E., n=10
Experimental: Seven-week-old Crj: CD (SD) male rats were housed in polymethylpentene cages in an animal room controlled for room temperature (22-26° C.), relative humidity (47-60%), ventilation rate (10-20 times/hour) and light-dark cycle (lighting: 7:00 to 19:00) for at least 6 days. The animals were allowed free access to pellet diet and water from water bottles. Animals judged to be in good health were used in this study.
Rats were anesthetized by inhalation of a gas mixture of 2% isoflurane and N2O:O2 (=7:3), stabilized in the supine position, and maintained in the anesthetized state by inhalation of the above gas mixture. The animals were monitored for rectal temperature using a temperature probe during the period of the surgical operation. When a fall in body temperature was observed, an incandescent lamp was used to maintain the temperature at around 37° C. The right common carotid artery, external carotid artery, and internal carotid artery were exposed for occluding the middle cerebral artery (hereafter, MCA). The right common carotid artery and the external carotid artery were ligatured using sutures (5-0), and a 19 mm-long segment of No. 4-0 nylon suture which were precoated with silicone was inserted into the MCA through the bifurcation of the external and internal carotid arteries to occlude the MCA. At 2 hours after the MCA occlusion, the suture was removed and the blood flow in the MCA was restored.
Compound A was dissolved in a vehicle (physiological saline containing 1% polysorbate 80), and was administered intravenously to the animals at a volume of 2 mL/kg immediately after the MCA occlusion-reperfusion and 30 minutes after the MCA occlusion-reperfusion. The control group received an equal volume of the vehicle in the same manner.
At 24 hours after MCA occlusion, the animals were decapitated and the brains were immediately isolated. […] Graphic analysis (Adobe Photoshop™, version 3.0 J; Adobe Systems Incorporated, Color Count 0.3b; K&M Software Corporation) was applied to the photographs, and the infarct area was measured. […]

[3] = tested on: Alzheimer's disease model animals; assay: Morris water maze test in Alzheimer's disease model animals (bilateral ibotenic acid lesions of basal ganglia); assay type: in vivo, rats
Experimental: Alzheimer's disease model animals were prepared by bilateral ibotenic acid lesions of basal ganglia in rats. Briefly, rats were anesthetized with pentobarbital sodium and placed in a small animal stereotaxic apparatus. Bilateral infusions of 5 μg/0.5 μL of ibotenic acid into the basal ganglia were made at a rate of 0.1 μL/min via a syringe pump and a stainless steel cannula (outer diameter: 0.5 mm). Stereotaxic coordinates were as follows: −0.8 mm posterior from bregma, 2.6 mm lateral (both sides) from midline, and 7.4 mm depth from the bone surface. Animals in sham group received only anesthesia. Animals were then housed with free access to food and water for the rest of the study.
Compound A was orally administered for 14 days after surgery to the model animals. Control group received the same amount of the vehicle.
Morris water maze test was performed to evaluate the effect of test compound. The water maze was a circular pool (painted gray, 1.48 m in diameter, 0.33 m high). The pool contained water that was maintained at a temperature of 17-18° C. During testing in the water maze, a platform, 12 cm in diameter, was located 2 cm below the water in one of four locations (zone 4) in the pool, approximately 38 cm from the sidewall. A light bulb was placed around the pool as a cue external to the maze. The animals received 2 trials per day from 10 days after the initiation of the administration with Compound A or the vehicle. The rats were trained to locate the hidden escape platform, which remained in a fixed location throughout testing. Trials lasted a maximum of 90 sec. The latency to find the submerged platform was recorded and used as a measure of acquisition of the task. The animals were tested in this way for 4 days (total 8 trials), and then they received a probe trial on the 5th day. […] The time the rat spent searching for the platform in the training quadrant (zone 4): i.e., the previous location of the platform was recorded and used as an index of memory.

[4] = tested on: Human vascular endothelial cell cultures; assay: Recovery of transendothelial electrical resistance (TEER) after oxygen deprivation; assay type: cell-based; settings: 5 nM with 0.1% DMSO, after 30 minutes oxygen deprivation in nitrogen atmosphere; FIG. 1
Experimental: FIG. 1 is a graph showing the effect of Compound A on Recovery of Transendothelial Electrical Resistance (TEER). Human vascular endothelial cell cultures were brought to confluence, as measured by transendothelial electrical resistance (TEER). The cell cultures were then deprived of oxygen for 30 minutes by incubation in a nitrogen atmosphere. The cells were then either treated with 0.1% DMSO or with 5 nM Compound A with 0.1% DMSO. Statistical significance is indicated at all data points after drug treatment. N=10 cells.
Human vascular endothelial cell cultures were brought to confluence, as measured by transendothelial electrical resistance (TEER). The cell cultures were then deprived of oxygen for 30 minutes by incubation in a nitrogen atmosphere. The cells were then either treated with 0.1% DMSO or with 5 nM Compound A with 0.1% DMSO final.

[5] = tested on: Human microvascular endothelial cells (adult) (HMVEC-AD); assay: Recovery of ATP level after nitrogen atmosphere (luciferin-luciferase assay); assay type: cell-based; settings: 5 nM, after 30 minutes nitrogen atmosphere, compared to cells treated with 0.01% DMSO alone; FIG. 2
Experimental: FIG. 2 is a graph showing the effect of Compound A on Recovery of ATP Level. Human microvascular endothelial cells (adult) (HMVEC-AD) were grown to confluence. The cells were then treated for 30 minutes with a nitrogen atmosphere and returned to normal oxygen. ATP levels were monitored at the indicated time points using a luciferin-luciferase assay system (ATPlite, Perkin Elmer). ATP levels are given as relative luminescence. N=6 cells at each time point.
Human microvascular endothelial cells (adult) (HMVEC-AD) were grown to confluence. The cells were then treated for 30 minutes with a nitrogen atmosphere and returned to normal oxygen. ATP levels were monitored at the indicated time points using a luciferin-luciferase assay system (ATPlite, Perkin Elmer).

ddY mice [6] = assay: Persistent time of gasping movements after decapitation in mice, subcutaneous (Example 3); assay type: in vivo; settings: 300 μg/kg s.c.
Experimental: as §1
11-deoxy-13,14-dihydro-16,16-difluoro-PGE1 (hereinafter, “Compound C”) was dissolved in a vehicle (physiologic saline containing 0.01% polysorbate 80 and 0.5% ethanol), and was administered subcutaneously to the animals. The control group received an equal amount of the vehicle in the same manner.
as §2

Row | Compound | Persistent Time of Gasping Movements (ddY mice [1]; 10 μg/kg s.c.) | Persistent Time of Gasping Movements (ddY mice [1]; 30 μg/kg s.c.) | Persistent Time of Gasping Movements (ddY mice [1]; 100 μg/kg s.c., p<0.05 vs vehicle) | Persistent Time of Gasping Movements (ddY mice [1]; 300 μg/kg s.c., p<0.01 vs vehicle) | Effect on persistent time of gasping movement after decapitation (in words) (ddY mice [1]; 10, 30, 100 and 300 μg/kg s.c.) | Persistent Time of Gasping Movements (ddY mice [2]; 100 μg/kg p.o.) | Persistent Time of Gasping Movements (ddY mice [2]; 300 μg/kg p.o.) | Persistent Time of Gasping Movements (ddY mice [2]; 1000 μg/kg p.o.) | Effect on persistent time of gasping movement after decapitation (in words) (ddY mice [2]) | Infarct volume (Crj: CD (SD) male rats; 0.05 mg/kg i.v. immediately after and 30 minutes after MCA occlusion-reperfusion, P<0.05) | Infarct volume (Crj: CD (SD) male rats; 0.5 mg/kg i.v. immediately after and 30 minutes after MCA occlusion-reperfusion, P<0.01) | Effect on cerebral infarct volume after ischemia (in words) (Crj: CD (SD) male rats; 0.05 and 0.5 mg/kg i.v., compared with vehicle group) | Goal latency (8th trial) ([3]; 1 mg/kg orally for 14 days after surgery, mean ± SE, n=10, p<0.01 vs vehicle) | Time spent in zone 4 ([3]; 1 mg/kg orally for 14 days after surgery, probe trial 90 sec, mean ± SE, n=10, p<0.05 vs vehicle) | Effect on deficit in learning and memory (in words) ([3]; orally for 14 days after surgery, Morris water maze) | Recovery of TEER (in words) [4] | Recovery of ATP level (in words) [5] | Effect on persistent time of gasping movement after decapitation (in words) (ddY mice [6]) | Persistent Time of Gasping Movements (ddY mice [6]; decapitated 30 minutes after administration, Mean ± SE, n=10, p<0.01 vs vehicle)
1 | CCCCC(F)(F)C(=O)CCC1CCC(=O)C1CCCCCCC(=O)O (centres unmarked) [Compound A, 11-deoxy-13,14-dihydro-15-keto-16,16-difluoro-PGE1] | 21.7 ± 0.6 s | 22.0 ± 0.4 s | 23.2 ± 0.8 s | 23.6 ± 0.6 s | dose-dependent prolongation | 18.8 ± 0.5 s | 18.9 ± 0.3 s | 20.2 ± 0.6 s | dose-dependent prolongation | 208.2 ± 22.2* mm^3 | 172.9 ± 25.5** mm^3 | significantly reduced the cerebral infarct volume | 51.5 ± 13.7 s | 20.8 ± 3.6 s | significant reversals of the deficit in learning and memory | immediate recovery of TEER | ATP levels returned more quickly | – | –
2 | CCCCC(F)(F)C(=O)CCC1CCC(=O)C1CCCCCCC(=O)OC (centres unmarked) [Compound B, 11-deoxy-13,14-dihydro-15-keto-16,16-difluoro-PGE1 methyl ester] | – | – | – | – | – | 17.6 ± 0.5 s | 19.1 ± 0.5 s | 19.1 ± 0.4 s | dose-dependent prolongation | – | – | – | – | – | – | – | – | – | –
3 | CCCCC(F)(F)C(O)CCC1CCC(=O)C1CCCCCCC(=O)O (centres unmarked) [Compound C, 11-deoxy-13,14-dihydro-16,16-difluoro-PGE1] | – | – | – | – | – | – | – | – | – | – | – | – | – | – | – | – | – | significant prolongation | 25.2 ± 0.7 s
